This test has as its target T1, CDK2 (Homo sapiens, UniProt P24941).
T1 construct: endogenous in cells; host or cells: OVCAR3 cells
Description: Phospho-RB measurement in OVCAR3 cells (HTRF phospho-RB S807/811). It counts as cell-based. To be noted: phosphorylation of RB protein at S807/811, HTRF, 24 h compound treatment, 0.3 to 10,000 nM, read-out: pRb (uM). The protocol:
The ability of compounds of Formula (I) to inhibit CDK2 was determined in OVCAR3 cells. Phosphorylation of RB protein at S807/811 were measured using HTRF phospho-RB cellular kits (Cat #64RBS807PEG) from Cisbio.
On Day 1, OVCAR3 cells were seeded into 96-well tissue-culture treated plates at 20,000 cells/well in 200 μL and incubated overnight at 37° C. in CO2 atmosphere. On Day 2, the cells were treated with test compounds at concentrations from 0.3 to 10,000 nM using HP D300 digital dispenser. Twenty-four hours after compound treatment, cell culture media was removed by flicking the plate and tapping the plate against clean paper towel. Immediately 30 μL 1× lysis buffer was supplemented from the kit and the plate was incubated at room temperature on shaker for 30 min. After homogenization by pipetting up and down, 8 μL cell lysate from 96-well cell culture plate was transferred to 384-well small volume white detection plate. 2 μL premixed detection solution was added and the plate was covered with sealer. To prepare the detection solution, d2 conjugated-phospho-RB antibody and Eu-cryptate conjugated phosphor-RB antibody were diluted into detection buffer following manufacturer's instruction.
Detection plates were incubated for 4 h at room temperature and read on ClarioStar (BMG Labtech) in TR-FRET mode ([…]). The TR-FRET ratio (665 nM1/620 nM) was plotted against the compound concentration and normalized to DMSO controls. Half maximal inhibition concentration (IC50) values are calculated with a four-parameter logistic fit using GraphPad Prism (version 8; La Jolla, CA).
A general note: Time-resolved FRET reads energy transfer from a long-lived donor to a nearby acceptor.
As to `O=S1(=O)CC2C(C1)C2Nc1nccc(-c2sc(N3C4CCC3COC4)nc2-c2cccc(NS(=O)(=O)c3c(F)cccc3C(F)(F)F)c2F)n1` (stereo not drawn) [Example 112, N-(3-(2-(3-oxa-8-azabicyclo[3.2.1]octan-8-yl)-5-(2-((3,3-dioxido-3-thiabicyclo[3.1.0]hexan-6-yl)amino)pyrimidin-4-yl)thiazol-4-yl)-2-fluorophenyl)-2-fluoro-6-(trifluoromethyl)benzenesulfonamide], the IC50 is 0.03 µM.

In the case of `O=S1(=O)CC2(CC(Nc3nccc(-c4sc(C56CC(C5)C6)nc4-c4cccc(NS(=O)(=O)c5c(F)cccc5C5CC5)c4F)n3)C2)C1` [Example 41, N-(3-(2-(bicyclo[1.1.1]pentan-1-yl)-5-(2-((2,2-dioxido-2-thiaspiro[3.3]heptan-6-yl)amino)pyrimidin-4-yl)thiazol-4-yl)-2-fluorophenyl)-2-cyclopropyl-6-fluorobenzenesulfonamide], the IC50 was determined as 0.36 µM.

With `O=S1(=O)C[C@@H]2[C@H](C1)[C@H]2Nc1nccc(-c2sc(N3C4CCC3CN(C3CC(F)(F)C3)C4)nc2-c2cccc(NS(=O)(=O)c3c(F)cccc3F)c2F)n1` [Example 107, N-(3-(2-(3-(3,3-difluorocyclobutyl)-3,8-diazabicyclo[3.2.1]octan-8-yl)-5-(2-(((1R,5S,6r)-3,3-dioxido-3-thiabicyclo[3.1.0]hexan-6-yl)amino)pyrimidin-4-yl)thiazol-4-yl)-2-fluorophenyl)-2,6-difluorobenzenesulfonamide], the IC50 was found to be 0.15 µM.

For `O=S1(=O)CC2(CC(Nc3nccc(-c4sc(C56CC7CC(CC(C7)C5)C6)nc4-c4cccc(NS(=O)(=O)c5c(F)cccc5F)c4F)n3)C2)C1` [Example 6, N-(3-(2-((3r,5r,7r)-adamantan-1-yl)-5-(2-((2,2-dioxido-2-thiaspiro[3.3]heptan-6-yl)amino)pyrimidin-4-yl)thiazol-4-yl)-2-fluorophenyl)-2,6-difluorobenzenesulfonamide], the IC50 was determined as 0.08 µM.

Consider `CN1CC2CCC(C1)N2c1nc(-c2cccc(NS(=O)(=O)c3c(F)cccc3OC(F)F)c2F)c(-c2ccnc(N[C@H]3[C@@H]4CS(=O)(=O)C[C@@H]43)n2)s1` [Example 122, 2-(difluoromethoxy)-N-(3-(5-(2-(((1R,5S,6r)-3,3-dioxido-3-thiabicyclo[3.1.0]hexan-6-yl)amino)pyrimidin-4-yl)-2-(3-methyl-3,8-diazabicyclo[3.2.1]octan-8-yl)thiazol-4-yl)-2-fluorophenyl)-6-fluorobenzenesulfonamide], for which the IC50 was determined as 0.04 µM.

Take `CS(=O)(=O)[C@H]1CC[C@@H](Nc2nccc(-c3sc(C45CC(Cl)(C4)C5)nc3-c3cccc(NS(=O)(=O)c4c(F)cccc4C(F)(F)F)c3F)n2)CC1` [Example 146, N-(3-(2-(3-chlorobicyclo[1.1.1]pentan-1-yl)-5-(2-(((1s,4s)-4-(methylsulfonyl)cyclohexyl)amino)pyrimidin-4-yl)thiazol-4-yl)-2-fluorophenyl)-2-fluoro-6-(trifluoromethyl)benzenesulfonamide]: the IC50 was determined as 0.2 µM.

On to `O=S1(=O)C[C@@H]2[C@H](C1)[C@H]2Nc1nccc(-c2sc(N3C4CCC3CN(C3CCC3)C4)nc2-c2cccc(NS(=O)(=O)c3c(F)cccc3C(F)(F)F)c2F)n1` [Example 131, N-(3-(2-(3-cyclobutyl-3,8-diazabicyclo[3.2.1]octan-8-yl)-5-(2-(((1R,5S,6r)-3,3-dioxido-3-thiabicyclo[3.1.0]hexan-6-yl)amino)-pyrimidin-4-yl)thiazol-4-yl)-2-fluorophenyl)-2-fluoro-6-(trifluoromethyl)benzenesulfonamide], for which the IC50 is 0.12 µM.

On to `O=S1(=O)C[C@@H]2[C@H](C1)[C@H]2Nc1nccc(-c2sc(C34CC(C3)C4)nc2-c2cccc(NS(=O)(=O)c3c(F)cccc3OC(F)F)c2F)n1` [Example 113, N-(3-(2-(bicyclo[1.1.1]pentan-1-yl)-5-(2-(((1R,5S,6r)-3,3-dioxido-3-thiabicyclo[3.1.0]hexan-6-yl)amino)pyrimidin-4-yl)thiazol-4-yl)-2-fluorophenyl)-2-(difluoromethoxy)-6-fluorobenzenesulfonamide], for which the IC50 was determined as 0.07 µM.

As to `O=S1(=O)C[C@@H]2[C@H](C1)[C@H]2Nc1nccc(-c2sc(C34CC(C3)C4)nc2-c2cccc(NS(=O)(=O)c3c(F)cccc3C(F)(F)F)c2F)n1` [Example 103, N-(3-(2-(bicyclo[1.1.1]pentan-1-yl)-5-(2-(((1R,5S,6r)-3,3-dioxido-3-thiabicyclo[3.1.0]hexan-6-yl)amino)pyrimidin-4-yl)thiazol-4-yl)-2-fluorophenyl)-2-fluoro-6-(trifluoromethyl)benzenesulfonamide], the IC50 came to 0.1 µM.

As to `[2H]C([2H])([2H])N1CC2CCC(C1)N2c1nc(-c2cccc(NS(=O)(=O)c3c(F)cccc3F)c2F)c(-c2ccnc(NC3CC4(C3)CS(=O)(=O)C4)n2)s1` [Example 137, N-(3-(5-(2-((2,2-dioxido-2-thiaspiro[3.3]heptan-6-yl)amino)-pyrimidin-4-yl)-2-(3-(methyl-d3)-3,8-diazabicyclo[3.2.1]octan-8-yl)thiazol-4-yl)-2-fluorophenyl)-2,6-difluorobenzenesulfonamide], the IC50 was found to be 0.1 µM.

With `CC1(C#N)CC2CCC(C1)N2c1nc(-c2cccc(NS(=O)(=O)c3c(F)cccc3C(F)(F)F)c2F)c(-c2ccnc(NC3CC4(C3)CS(=O)(=O)C4)n2)s1` (stereo not drawn) [Example 151, N-(3-(2-(3-cyano-3-methyl-8-azabicyclo[3.2.1]octan-8-yl)-5-(2-((2,2-dioxido-2-thiaspiro[3.3]heptan-6-yl)amino)pyrimidin-4-yl)thiazol-4-yl)-2-fluorophenyl)-2-fluoro-6-(trifluoromethyl)benzenesulfonamide], the IC50 turned out to be 0.051 µM.

Regarding `C[C@H]1COC[C@H](C)N1c1nc(-c2cccc(NS(=O)(=O)c3c(F)cccc3F)c2F)c(-c2ccnc(N[C@H]3[C@@H]4CS(=O)(=O)C[C@@H]43)n2)s1` [Example 101, N-(3-(2-((3S,5S)-3,5-dimethylmorpholino)-5-(2-(((1R,5S,6r)-3,3-dioxido-3-thiabicyclo[3.1.0]hexan-6-yl)amino)pyrimidin-4-yl)thiazol-4-yl)-2-fluorophenyl)-2,6-difluorobenzenesulfonamide], the IC50 worked out at 0.17 µM.

For `CN1CC2CC(C1)N2c1nc(-c2cccc(NS(=O)(=O)c3c(F)cccc3F)c2F)c(-c2ccnc(NC3CC4(C3)CS(=O)(=O)C4)n2)s1` [Example 22, N-(3-(5-(2-((2,2-dioxido-2-thiaspiro[3.3]heptan-6-yl)amino)pyrimidin-4-yl)-2-(3-methyl-3,6-diazabicyclo[3.1.1]heptan-6-yl)thiazol-4-yl)-2-fluorophenyl)-2,6-difluorobenzenesulfonamide], the IC50 amounted to 0.44 µM.

As for `O=S1(=O)CC(N2CC3CCC(C2)N3c2nc(-c3cccc(NS(=O)(=O)c4c(F)cccc4F)c3F)c(-c3ccnc(NC4CC5(C4)CS(=O)(=O)C5)n3)s2)C1` [Example 45, N-(3-(5-(2-((2,2-dioxido-2-thiaspiro[3.3]heptan-6-yl)amino)-pyrimidin-4-yl)-2-(3-(1,1-dioxidothietan-3-yl)-3,8-diazabicyclo[3.2.1]octan-8-yl)thiazol-4-yl)-2-fluorophenyl)-2,6-difluorobenzenesulfonamide], the IC50 came out at 4.14 µM.

For `O=S1(=O)CC2(CC(Nc3nccc(-c4sc(N5C6CCC5CN(C5CCOC5)C6)nc4-c4cccc(NS(=O)(=O)c5c(F)cccc5F)c4F)n3)C2)C1` (stereo not drawn) [Example 44, N-(3-(5-(2-((2,2-dioxido-2-thiaspiro[3.3]heptan-6-yl)amino)-pyrimidin-4-yl)-2-(3-(tetrahydrofuran-3-yl)-3,8-diazabicyclo-[3.2.1]octan-8-yl)thiazol-4-yl)-2-fluorophenyl)-2,6-difluoro-benzenesulfonamide], the IC50 is 0.66 µM.

Take `CS(=O)(=O)C1CCC(Nc2nccc(-c3sc(C45CC(Cl)(C4)C5)nc3-c3cccc(NS(=O)(=O)c4c(F)cccc4C(F)(F)F)c3F)n2)CC1` (stereo not drawn) [Example 8, N-(3-(2-(3-chlorobicyclo[1.1.1]pentan-1-yl)-5-(2-(((1s,4s)-4-(methylsulfonyl)cyclohexyl)amino)pyrimidin-4-yl)thiazol-4-yl)-2-fluorophenyl)-2-fluoro-6-(trifluoromethyl)benzenesulfonamide]: the IC50 amounted to 0.24 µM.

On to `O=S1(=O)CC2(CC(Nc3nccc(-c4sc(C5(C(F)F)CCC5)nc4-c4cccc(NS(=O)(=O)c5c(F)cccc5C(F)(F)F)c4F)n3)C2)C1` [Example 83, N-(3-(2-(1-(difluoromethyl)cyclobutyl)-5-(2-((2,2-dioxido-2-thiaspiro[3.3]heptan-6-yl)amino)pyrimidin-4-yl)thiazol-4-yl)-2-fluorophenyl)-2-fluoro-6-(trifluoromethyl)benzenesulfonamide], for which the IC50 stood at 0.04 µM.

On to `O=S1(=O)CC2(CC(Nc3nccc(-c4sc(C5(C(F)F)CC5)nc4-c4cccc(NS(=O)(=O)c5c(F)cccc5OC(F)F)c4F)n3)C2)C1` [Example 81], for which the IC50 was 0.14 µM.

The values are drawn from patent publication US12331026B2 (NiKang Therapeutics, Inc., priority 2022, dated 2025).
